In the test the target is epidermal growth factor receptor (EGFR) (Homo sapiens, UniProt P00533). As to the kind of experiment: ADP-Glo EGFR kinase inhibition assay (Promega V9261), eight concentrations. The format is biochemical. Background: In ADP-Glo the light output rises with the ADP produced.

From article PMC9268025, “GC-MS/MS Quantification of EGFR Inhibitors, β-Sitosterol, Betulinic Acid, (+) Eriodictyol, (+) Epipinoresinol, and Secoisolariciresinol, in Crude Extract and Ethyl Acetate Fraction of Thonningia sanguinea” (Molecules, 2022) come the findings set out here.

Each structure is given as a SMILES string.

Chain of epidermal growth factor receptor (EGFR) (P00533 25-1210): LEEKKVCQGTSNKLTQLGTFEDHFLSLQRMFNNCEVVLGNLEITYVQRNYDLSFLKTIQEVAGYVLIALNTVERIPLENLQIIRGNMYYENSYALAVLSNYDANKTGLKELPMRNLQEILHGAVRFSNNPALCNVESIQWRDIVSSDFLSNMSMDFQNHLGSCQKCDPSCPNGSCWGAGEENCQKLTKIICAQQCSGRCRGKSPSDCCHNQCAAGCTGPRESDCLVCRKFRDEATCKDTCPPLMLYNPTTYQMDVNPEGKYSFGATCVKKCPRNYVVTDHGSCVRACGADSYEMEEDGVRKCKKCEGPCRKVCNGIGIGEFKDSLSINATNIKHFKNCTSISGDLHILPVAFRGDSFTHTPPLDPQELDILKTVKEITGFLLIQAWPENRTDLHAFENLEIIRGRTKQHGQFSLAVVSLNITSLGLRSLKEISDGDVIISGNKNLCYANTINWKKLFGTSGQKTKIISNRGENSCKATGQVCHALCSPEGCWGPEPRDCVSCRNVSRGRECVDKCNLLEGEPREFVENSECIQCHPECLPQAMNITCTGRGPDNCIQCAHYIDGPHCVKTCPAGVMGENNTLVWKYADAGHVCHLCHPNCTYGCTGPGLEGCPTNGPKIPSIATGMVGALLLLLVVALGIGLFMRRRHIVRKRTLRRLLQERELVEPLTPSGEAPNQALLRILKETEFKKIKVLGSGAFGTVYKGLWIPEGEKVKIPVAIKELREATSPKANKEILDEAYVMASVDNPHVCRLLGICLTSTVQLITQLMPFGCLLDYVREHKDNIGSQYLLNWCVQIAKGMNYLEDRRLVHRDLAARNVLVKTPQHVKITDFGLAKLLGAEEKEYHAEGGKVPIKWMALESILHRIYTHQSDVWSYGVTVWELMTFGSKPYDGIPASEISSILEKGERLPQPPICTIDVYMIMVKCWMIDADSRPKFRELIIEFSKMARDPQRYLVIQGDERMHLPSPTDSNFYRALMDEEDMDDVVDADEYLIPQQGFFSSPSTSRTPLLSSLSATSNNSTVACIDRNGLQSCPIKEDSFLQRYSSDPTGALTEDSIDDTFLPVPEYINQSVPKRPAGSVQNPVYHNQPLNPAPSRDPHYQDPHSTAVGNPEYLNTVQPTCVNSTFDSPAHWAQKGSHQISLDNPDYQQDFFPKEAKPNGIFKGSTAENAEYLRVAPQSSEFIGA

Regarding `O=C1C[C@@H](c2ccc(O)c(O)c2)Oc2cc(O)cc(O)c21` [(+) Eriodictyol], the IC50 was 76.2 nM.
For the molecule `COc1cc(C[C@@H](CO)[C@H](CO)Cc2ccc(O)c(OC)c2)ccc1O` [Secoisolariciresinol], the midpoint of inhibition, the IC50, lay at 80.3 nM.

As usually defined, the IC50 is the concentration needed to halve the response being measured. Lower therefore signals higher potency.
